{"source": "ChEMBL document CHEMBL1201862", "about": "“PubChem BioAssay data set” (2004)", "key": {"Cysteine protease ATG4B": {"target": "T1, Cysteine protease ATG4B (Homo sapiens, UniProt Q9Y4P1)", "T1 sequence (Q9Y4P1 whole entry)": "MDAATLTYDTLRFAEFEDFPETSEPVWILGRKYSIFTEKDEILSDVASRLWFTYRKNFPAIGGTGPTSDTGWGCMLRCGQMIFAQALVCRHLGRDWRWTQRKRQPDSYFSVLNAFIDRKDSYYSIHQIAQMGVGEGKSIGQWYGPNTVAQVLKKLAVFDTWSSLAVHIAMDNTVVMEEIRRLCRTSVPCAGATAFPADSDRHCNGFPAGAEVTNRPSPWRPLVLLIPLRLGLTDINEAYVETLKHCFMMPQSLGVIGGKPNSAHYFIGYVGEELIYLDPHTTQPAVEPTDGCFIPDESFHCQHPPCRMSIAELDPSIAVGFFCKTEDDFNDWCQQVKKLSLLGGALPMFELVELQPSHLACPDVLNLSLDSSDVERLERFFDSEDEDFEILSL", "assay_type": "functional"}, "Phospholipase A2": {"target": "Phospholipase A2 (Homo sapiens, UniProt P04054)", "sequence (P04054 whole entry)": "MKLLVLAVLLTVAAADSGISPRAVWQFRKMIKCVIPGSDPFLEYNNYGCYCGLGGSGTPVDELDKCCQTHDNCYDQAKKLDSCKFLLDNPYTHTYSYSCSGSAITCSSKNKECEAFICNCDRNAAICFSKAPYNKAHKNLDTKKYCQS", "assay_type": "functional"}, "HEK293": {"tested_on": "HEK293", "experiment": "cells", "assay_type": "functional, cell-based", "details": "Homo sapiens"}, "[1]": {"target": "T2, Nuclear receptor subfamily 0 group B member 1 (Homo sapiens, UniProt P51843)", "T2 sequence (P51843 whole entry)": "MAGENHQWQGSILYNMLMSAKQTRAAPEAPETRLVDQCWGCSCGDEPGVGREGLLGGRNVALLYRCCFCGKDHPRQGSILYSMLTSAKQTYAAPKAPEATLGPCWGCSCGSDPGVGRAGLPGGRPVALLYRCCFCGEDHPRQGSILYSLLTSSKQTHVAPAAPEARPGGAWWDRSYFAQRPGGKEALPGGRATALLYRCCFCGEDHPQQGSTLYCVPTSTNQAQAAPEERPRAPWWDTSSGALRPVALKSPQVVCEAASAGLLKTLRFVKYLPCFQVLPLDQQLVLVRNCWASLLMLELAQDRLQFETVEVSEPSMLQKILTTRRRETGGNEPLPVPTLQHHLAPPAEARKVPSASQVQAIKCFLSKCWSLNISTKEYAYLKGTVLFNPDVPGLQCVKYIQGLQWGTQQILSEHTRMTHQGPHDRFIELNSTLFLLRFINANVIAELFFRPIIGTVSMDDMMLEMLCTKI", "experiment": "Luminescence-based cell-based high throughput dose response assay for inhibitors of the orphan nuclear receptor subfamily 0, group B, member 1 (DAX1; NR0B1). [Related pubchem assays (depositor defined):AID504766, AID504790]", "assay_type": "functional"}, "[2]": {"target": "Protein-tyrosine kinase 2-beta (Homo sapiens, UniProt Q14289)", "sequence (Q14289 whole entry)": "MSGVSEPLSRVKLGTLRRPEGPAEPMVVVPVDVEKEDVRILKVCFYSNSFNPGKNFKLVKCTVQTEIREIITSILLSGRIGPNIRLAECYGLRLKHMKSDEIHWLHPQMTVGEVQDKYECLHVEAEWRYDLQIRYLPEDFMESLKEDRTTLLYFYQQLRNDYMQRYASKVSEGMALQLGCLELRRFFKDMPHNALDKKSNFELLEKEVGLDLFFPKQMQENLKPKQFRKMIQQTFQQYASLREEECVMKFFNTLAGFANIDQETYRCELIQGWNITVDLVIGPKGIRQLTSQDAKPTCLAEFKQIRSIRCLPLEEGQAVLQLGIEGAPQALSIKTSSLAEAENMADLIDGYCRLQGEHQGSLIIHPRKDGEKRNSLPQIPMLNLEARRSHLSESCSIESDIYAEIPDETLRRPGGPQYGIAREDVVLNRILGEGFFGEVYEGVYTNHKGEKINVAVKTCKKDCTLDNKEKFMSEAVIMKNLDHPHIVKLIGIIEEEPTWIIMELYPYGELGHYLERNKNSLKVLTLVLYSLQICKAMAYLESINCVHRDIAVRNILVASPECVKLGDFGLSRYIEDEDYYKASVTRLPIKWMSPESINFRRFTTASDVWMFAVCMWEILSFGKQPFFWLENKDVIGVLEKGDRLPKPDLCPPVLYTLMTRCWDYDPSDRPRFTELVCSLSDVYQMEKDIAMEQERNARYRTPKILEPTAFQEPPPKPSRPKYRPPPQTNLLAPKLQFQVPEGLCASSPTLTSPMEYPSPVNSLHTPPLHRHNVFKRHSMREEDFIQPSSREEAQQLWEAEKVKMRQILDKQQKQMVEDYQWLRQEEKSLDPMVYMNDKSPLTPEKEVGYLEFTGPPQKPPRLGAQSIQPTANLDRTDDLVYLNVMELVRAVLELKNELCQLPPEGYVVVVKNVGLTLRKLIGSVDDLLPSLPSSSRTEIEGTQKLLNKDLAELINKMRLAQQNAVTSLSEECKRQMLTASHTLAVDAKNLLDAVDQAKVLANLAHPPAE"}, "[3]": {"target": "Induced myeloid leukemia cell differentiation protein Mcl-1 (Homo sapiens, UniProt Q07820)", "sequence (Q07820 whole entry)": "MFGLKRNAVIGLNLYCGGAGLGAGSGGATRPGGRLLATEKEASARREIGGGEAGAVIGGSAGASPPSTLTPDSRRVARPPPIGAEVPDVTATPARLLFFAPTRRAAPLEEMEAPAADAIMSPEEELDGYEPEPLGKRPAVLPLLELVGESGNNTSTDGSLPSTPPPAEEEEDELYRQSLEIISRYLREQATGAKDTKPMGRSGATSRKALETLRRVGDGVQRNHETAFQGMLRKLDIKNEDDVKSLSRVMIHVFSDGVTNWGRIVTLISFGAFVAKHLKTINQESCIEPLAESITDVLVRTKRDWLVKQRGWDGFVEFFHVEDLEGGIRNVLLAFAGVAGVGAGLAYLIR", "assay_type": "functional"}, "CHO": {"tested_on": "CHO", "experiment": "cytotoxicity in TLR9-MyD88 CHO cells, dose response, cytotoxicity control for TLR9-MyD88 binding inhibitor project, cell-based, luminescence (AID 588339);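 also: CHO cells stably coexpressing TLR9 and MyD88 fusions from primary screen; compound exposure lasted 48 hours before viability readout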", "assay_type": "functional, hamster", "details": "Cricetulus griseus"}, "Caspase-3": {"target": "T3, Caspase-3 (Homo sapiens, UniProt P42574)", "T3 sequence (P42574 whole entry)": "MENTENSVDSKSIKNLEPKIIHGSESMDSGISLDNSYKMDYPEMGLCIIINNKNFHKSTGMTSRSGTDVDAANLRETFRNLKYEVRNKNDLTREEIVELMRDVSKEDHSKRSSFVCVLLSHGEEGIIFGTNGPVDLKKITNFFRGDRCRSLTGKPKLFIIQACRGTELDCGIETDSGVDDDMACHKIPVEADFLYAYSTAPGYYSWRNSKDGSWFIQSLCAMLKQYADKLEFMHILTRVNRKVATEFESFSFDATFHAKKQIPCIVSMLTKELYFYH", "assay_type": "functional"}, "[4]": {"target": "T4, Sentrin-specific protease 7 (Homo sapiens, UniProt Q9BQF6)", "T4 sequence (Q9BQF6 whole entry)": "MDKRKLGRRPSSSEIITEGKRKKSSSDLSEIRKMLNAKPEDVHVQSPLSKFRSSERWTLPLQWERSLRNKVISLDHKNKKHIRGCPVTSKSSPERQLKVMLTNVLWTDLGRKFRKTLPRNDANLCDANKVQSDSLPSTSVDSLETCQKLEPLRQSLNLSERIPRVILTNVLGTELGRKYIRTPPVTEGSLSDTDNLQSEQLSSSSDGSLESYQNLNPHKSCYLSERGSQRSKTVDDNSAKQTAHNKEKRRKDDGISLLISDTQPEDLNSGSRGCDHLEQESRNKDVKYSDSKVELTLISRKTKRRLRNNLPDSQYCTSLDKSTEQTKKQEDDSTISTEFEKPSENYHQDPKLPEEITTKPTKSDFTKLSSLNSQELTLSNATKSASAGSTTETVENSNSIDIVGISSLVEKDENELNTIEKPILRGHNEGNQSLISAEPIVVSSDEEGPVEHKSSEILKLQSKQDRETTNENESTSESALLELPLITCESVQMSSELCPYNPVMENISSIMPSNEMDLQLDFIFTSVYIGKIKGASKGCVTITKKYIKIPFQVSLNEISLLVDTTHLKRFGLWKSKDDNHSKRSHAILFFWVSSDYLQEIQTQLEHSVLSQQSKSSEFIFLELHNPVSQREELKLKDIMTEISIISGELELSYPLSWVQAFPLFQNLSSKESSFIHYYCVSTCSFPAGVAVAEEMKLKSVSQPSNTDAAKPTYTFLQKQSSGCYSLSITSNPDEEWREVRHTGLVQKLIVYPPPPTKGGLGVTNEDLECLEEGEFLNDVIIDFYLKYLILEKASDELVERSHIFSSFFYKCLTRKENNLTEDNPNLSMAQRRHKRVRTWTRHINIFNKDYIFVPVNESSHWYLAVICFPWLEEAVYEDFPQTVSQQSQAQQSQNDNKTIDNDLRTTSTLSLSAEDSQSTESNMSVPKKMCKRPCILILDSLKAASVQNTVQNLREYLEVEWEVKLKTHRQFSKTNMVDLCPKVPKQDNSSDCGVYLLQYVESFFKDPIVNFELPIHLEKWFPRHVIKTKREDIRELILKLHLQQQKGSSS", "assay_type": "functional"}, "[5]": {"target": "T5, Sentrin-specific protease 6 (Homo sapiens, UniProt Q9GZR1)", "T5 sequence (Q9GZR1 whole entry)": "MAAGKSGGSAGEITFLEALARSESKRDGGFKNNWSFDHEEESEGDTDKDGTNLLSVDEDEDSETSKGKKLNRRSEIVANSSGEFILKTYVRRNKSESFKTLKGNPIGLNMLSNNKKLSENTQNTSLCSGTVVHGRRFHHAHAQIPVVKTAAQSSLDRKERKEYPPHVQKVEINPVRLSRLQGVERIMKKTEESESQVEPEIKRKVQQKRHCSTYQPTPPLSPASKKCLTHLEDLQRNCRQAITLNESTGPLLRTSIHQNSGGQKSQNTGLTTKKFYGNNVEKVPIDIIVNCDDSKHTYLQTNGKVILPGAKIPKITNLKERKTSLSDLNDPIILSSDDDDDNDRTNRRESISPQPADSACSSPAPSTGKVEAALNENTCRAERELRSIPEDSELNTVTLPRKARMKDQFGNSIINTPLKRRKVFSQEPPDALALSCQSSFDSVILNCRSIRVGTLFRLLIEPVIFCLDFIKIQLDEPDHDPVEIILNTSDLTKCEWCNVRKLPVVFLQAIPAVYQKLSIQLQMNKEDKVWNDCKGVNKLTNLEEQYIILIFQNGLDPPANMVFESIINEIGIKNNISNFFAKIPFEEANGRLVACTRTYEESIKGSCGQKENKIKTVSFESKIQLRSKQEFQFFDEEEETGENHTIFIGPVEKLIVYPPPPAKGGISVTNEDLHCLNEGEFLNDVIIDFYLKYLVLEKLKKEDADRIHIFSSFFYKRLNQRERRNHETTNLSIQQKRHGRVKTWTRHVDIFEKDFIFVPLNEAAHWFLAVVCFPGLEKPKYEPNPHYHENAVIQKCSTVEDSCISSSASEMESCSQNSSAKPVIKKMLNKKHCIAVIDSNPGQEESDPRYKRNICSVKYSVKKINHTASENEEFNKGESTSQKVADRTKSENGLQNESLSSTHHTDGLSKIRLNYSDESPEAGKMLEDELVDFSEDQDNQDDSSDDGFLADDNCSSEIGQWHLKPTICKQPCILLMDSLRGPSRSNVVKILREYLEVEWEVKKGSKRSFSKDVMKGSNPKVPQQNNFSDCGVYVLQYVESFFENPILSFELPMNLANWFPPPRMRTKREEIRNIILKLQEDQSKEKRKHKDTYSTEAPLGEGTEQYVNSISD", "assay_type": "functional"}, "[6]": {"target": "T6, Sentrin-specific protease 8 (Homo sapiens, UniProt Q96LD8)", "T6 sequence (Q96LD8 whole entry)": "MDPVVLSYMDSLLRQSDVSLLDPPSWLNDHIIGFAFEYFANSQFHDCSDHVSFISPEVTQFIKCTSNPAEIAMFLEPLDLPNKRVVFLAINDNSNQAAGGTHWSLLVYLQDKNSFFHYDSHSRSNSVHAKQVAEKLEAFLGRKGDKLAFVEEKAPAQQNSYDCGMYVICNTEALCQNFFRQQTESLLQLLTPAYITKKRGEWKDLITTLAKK", "assay_type": "functional"}, "[7]": {"target": "Luciferin 4-monooxygenase (Photinus pyralis, UniProt P08659)", "sequence (P08659 whole entry)": "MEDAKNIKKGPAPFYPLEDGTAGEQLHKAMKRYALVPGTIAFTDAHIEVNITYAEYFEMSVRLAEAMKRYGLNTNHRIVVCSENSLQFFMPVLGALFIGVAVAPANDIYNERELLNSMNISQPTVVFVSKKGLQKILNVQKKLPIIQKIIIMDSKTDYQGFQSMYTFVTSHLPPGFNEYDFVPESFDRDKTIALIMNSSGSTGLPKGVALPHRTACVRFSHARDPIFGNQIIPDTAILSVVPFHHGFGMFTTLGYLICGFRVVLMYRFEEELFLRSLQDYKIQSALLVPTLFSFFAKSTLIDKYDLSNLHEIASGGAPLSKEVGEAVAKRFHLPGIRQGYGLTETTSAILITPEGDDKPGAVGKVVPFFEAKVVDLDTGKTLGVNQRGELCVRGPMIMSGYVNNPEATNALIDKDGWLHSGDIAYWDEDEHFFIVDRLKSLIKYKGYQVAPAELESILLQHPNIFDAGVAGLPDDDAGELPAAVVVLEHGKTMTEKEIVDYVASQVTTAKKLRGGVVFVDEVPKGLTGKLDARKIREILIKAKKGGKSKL", "experiment": "Counter Screen for Luciferase-based Assay Positives. [Related pubchem assays: 620, 618, 411 ]"}, "HT-1080": {"tested_on": "HT-1080", "experiment": "cytotoxicity in HT1080 fibrosarcoma cells, cell-based, fluorescence readout (AID 620)", "assay_type": "functional", "details": "Homo sapiens"}, "Nonstructural protein 1": {"target": "Nonstructural protein 1 (Influenza A virus, UniProt Q194T2)", "sequence (Q194T2 whole entry)": "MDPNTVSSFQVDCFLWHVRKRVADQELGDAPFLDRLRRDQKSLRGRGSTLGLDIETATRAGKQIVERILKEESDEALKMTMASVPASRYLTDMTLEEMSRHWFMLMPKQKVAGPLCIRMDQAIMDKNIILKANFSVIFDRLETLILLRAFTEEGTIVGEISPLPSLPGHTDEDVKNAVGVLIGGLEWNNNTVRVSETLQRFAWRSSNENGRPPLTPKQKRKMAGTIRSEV", "assay_type": "functional, Influenza A virus (A/California/07/2009(H1N1))"}}, "note": "Active and inactive are the calls of the source.", "data": [{"smiles": "Cc1oc(-c2ccccc2Cl)nc1C[S+]([O-])CC(=O)NCc1ccccc1Cl", "note": "(stereo not drawn)", "values": [{"measurement": "IC50", "setting": "Cysteine protease ATG4B", "result": "16.8 µM (active)"}, {"measurement": "IC50", "setting": "Phospholipase A2", "result": "7.47 µM (active)"}]}, {"smiles": "Nc1c(O)nc(O)nc1C(=O)OCC(=O)NCc1ccccc1", "values": [{"measurement": "IC50", "setting": "HEK293", "result": "> 67.5 µM (inactive)"}, {"measurement": "IC50", "setting": "[1]", "result": "> 67.5 µM (inactive)"}]}, {"smiles": "COc1ccc(C(=O)c2sc3nc(-c4ccccc4)ccc3c2N)cc1OC", "values": [{"measurement": "IC50", "setting": "[2]", "result": "12 µM (not active)"}, {"measurement": "IC50", "setting": "[3]", "result": "1.27 µM (not active)"}, {"measurement": "IC50", "setting": "CHO", "result": "27.3 µM (inactive)"}]}, {"smiles": "O=C1c2ccccc2C(=O)N1CCc1c[nH]c2ccccc12", "values": [{"measurement": "IC50", "setting": "HEK293", "result": "> 67.5 µM (inactive)"}, {"measurement": "IC50", "setting": "[1]", "result": "> 67.5 µM (inactive)"}]}, {"smiles": "O=C(Nc1nnc(CCc2ccccc2)s1)c1ccccc1F", "values": [{"measurement": "IC50", "setting": "Caspase-3", "result": "18.9 µM (active)"}, {"measurement": "IC50", "setting": "[4]", "result": "16.8 µM (active)"}, {"measurement": "IC50", "setting": "[5]", "result": "> 100 µM (inactive)"}, {"measurement": "IC50", "setting": "[6]", "result": "> 100 µM (inactive)"}]}, {"smiles": "COc1ccc(Cl)cc1-n1c(=S)sc2c(O)nc(SCC(=O)NCCC(C)C)nc21", "values": [{"measurement": "IC50", "setting": "Cysteine protease ATG4B", "result": "19.5 µM (active)"}, {"measurement": "IC50", "setting": "Phospholipase A2", "result": "13.8 µM (active)"}]}, {"smiles": "Clc1ccc(-c2nnc(N3CCCC3)nn2)cc1", "values": [{"measurement": "EC50", "setting": "[7]", "result": "1.39 µM (active)"}, {"measurement": "EC50", "setting": "HT-1080", "result": "> 50 µM (not active)"}, {"measurement": "IC50", "setting": "Nonstructural protein 1", "result": "> 100 µM (active)"}, {"measurement": "IC50", "setting": "HEK293", "result": "> 67.5 µM (inactive)"}, {"measurement": "IC50", "setting": "[1]", "result": "> 67.5 µM (inactive)"}]}, {"smiles": "CCOC(=O)c1c(C)[nH]c(C(=O)OCC(=O)c2ccccc2)c1C", "values": [{"measurement": "IC50", "setting": "Caspase-3", "result": "24.3 µM (active)"}, {"measurement": "IC50", "setting": "[4]", "result": "7.72 µM (active)"}, {"measurement": "IC50", "setting": "[5]", "result": "24.4 µM (active)"}, {"measurement": "IC50", "setting": "[6]", "result": "26.4 µM (active)"}]}, {"smiles": "O=C(N/N=C/C(Br)=C\\c1ccccc1)c1cccs1", "values": [{"measurement": "IC50", "setting": "Caspase-3", "result": "31.6 µM (active)"}, {"measurement": "IC50", "setting": "[4]", "result": "5.94 µM (active)"}, {"measurement": "IC50", "setting": "[5]", "result": "> 100 µM (inactive)"}, {"measurement": "IC50", "setting": "[6]", "result": "> 100 µM (inactive)"}]}]}
